Results on three compounds are retold here after EP1531819B1, “USE OF I kappa B KINASE INHIBITORS FOR THE TREATMENT OF PAIN” (Sanofi-Aventis Deutschland GmbH, priority 2002, dated 2004).

The subject of test [1] is Kaolin/Carrageenan induzierte Kniegelenksentzündung bei der Ratte. In words: Model 2: kaolin/carrageenan-induced knee joint inflammation, responses of spinal neurons to pressure on the knee. It counts as in vivo. The text has this: Modell: Zymosan-induzierte Pfotenentzündung bei der Ratte; Parameter: Pfotenwegziehzeit oder Pfotenwegziehschwelle bei thermischer oder mechanischer Stimulation der Hinterpfote. • 2. Modell: Kaolin/Carrageenan induzierte Kniegelenksentzündung bei der Ratte; Parameter: Reaktion spinaler Neurone bei Druckreizung des Knies.
Versuchsdurchführung: Bei Ratten wurde in Trapanal-Narkose der Wirbelkanal eröffnet und Rückenmarksneurone, die "Schmerzimpulse" aus dem Kniegelenk verarbeiteten, identifiziert. Nach Identifizierung wurde eine Langzeitableitung durchgeführt, in der die Aktivität der Nervenzelle vor und während der Entwicklung einer akuten Entzündung im Kniegelenk registriert wurde. Dazu wurden in einer Kontrollperiode vor Induktion der Entzündung und nach Induktion der Entzündung für mehrere Stunden die Antworten auf nicht noxische und noxische Reizung am Kniegelenk gemessen.
Die akute Entzündung wurde durch die intraartikuläre Injektion einer Kaolin und Carrageenan Suspension (etwa 150 µl) induziert. In Kontrollexperimenten wurde nur das Vehikel auf die Rückenmarksoberfläche aufgebracht, um die Entwicklung der Übererregbarkeit unter Kontrollbedingungen darzustellen. In der Regel fand diese Entwicklung der Übererregbarkeit innerhalb von 2 bis 4 Stunden statt, und sie äußerte sich in einer starken Zunahme der Antworten auf nicht noxische und noxische Reizung des Kniegelenks (Tab. 3). […] Dann wurden die Antworten der Zelle auf nichtnoxische und noxische Reizung wie in den Kontrollexperimenten weiter verfolgt.

In test [2] the test system is Zymosan-induzierte Pfotenentzündung bei der Maus. In words: Model 3: zymosan-induced paw inflammation, paw withdrawal latency on thermal stimulation (Hargreaves Test), AUC. Format: in vivo. The conditions noted are these: for AUC Mittelwert [Maß für Hyperalgesie]: thermische Hyperalgesie. Here is the method:
Parameter: Pfotenwegziehzeit bei thermischer Stimulation der Hinterpfote. Versuchsdurchführung: In Kurzzeitnarkose mit Isofluran wurde dem Versuchstier 25 μl einer Suspension, die 50 mg/ml Zymosan enthielt, in die rechte Hinterpfote injiziert. Dann wurde die […] quantitativ wie folgt bestimmt: Bestimmung der Pfotenwegziehzeit bei thermischer Stimulation (Hargreaves Test; s.o.). Das Versuchstier wurde in […] Versuchstier nach der Erkundungsphase (etwa 5 min) nicht mehr bewegte, wurde […] zu stimulierenden Hinterpfote positioniert und […]. Die […] ab, so dass die Hauttemperatur […] linear […] Pfote […] ab. Die Pfotentemperatur zum Zeitpunkt des Wegziehens ist für das Tier gerade eben unangenehm, […] von thermischer Schmerzschwelle. Kurz vor Zymosan-Injektion und für 7 bis 14 Tage nach Injektion wurde […] an der rechten und linken Hinterpfote bestimmt. Anschließend wurde […] Integral der Fläche, die aus […] und […] Pfote gebildet wurde, bestimmt (AUC, area between the curves, s. Tabellen 5 und 6). Je größer dieser Wert ist, umso […], und je kleiner der Wert bei Tieren, die die Substanz erhalten, desto stärker ist der Therapieerfolg. In einer 7-Tage Studie induzierte die Zymosan Injektion in […], Tab. 5). In den anderen Gruppen wurde die Substanzgabe einen Tag nach Zymosan Injektion, […] schon […]. […] Die […] Studie (7 Tage) ergab, dass die AUC unter Substanzgabe dosisabhängig abnahm. […] In einer parallel […] von Tieren wurde Paracetamol in einer sehr hohen Dosis ebenfalls zweimal am Tag verabreicht. […] Paracetamol (Tab. 5). […] […] Zymosan Injektion und Dosierschema […] zuvor beschriebenen Studie. Einziger Unterschied war, dass die weitere Studie über 14 Tage lief.

Test [3] has the same test system. In words: Model 4: zymosan-induced paw inflammation, spontaneous running wheel performance, AUC. It counts as in vivo, C57/B6 Mäuse. From the text:
Das Versuchstier hat in seinem Haltungskäfig Zugang zu einem Laufrad, dessen Umdrehungen elektronisch registriert werden. Die C57/B6 Mäuse benutzen in den Nachtstunden freiwillig das Laufrad und legen im Mittel nach einer einwöchigen Gewöhnungsphase 4100 Meter/Nacht zurück. Nach Zymosan Injektion ist die nächtliche Laufstrecke verkürzt. Diese Abnahme der Laufleistung gilt als Parameter für entzündungsschmerzbedingte Funktionseinschränkung. Versuchsdurchführung: Die Laufstrecke/24 Std. wurde nach einer Eingewöhnungsphase eine Woche lang zur Bestimmung der Baseline gemessen. Dann wurde in Kurzzeitnarkose mit Isofluran dem Versuchstier 25 µl einer Suspension, die […] Zymosan enthielt, in die rechte Hinterpfote injiziert. Anschließend wurde Laufstrecke/24 Std. während der nächsten sieben Tage ermittelt. In der Auswertung wurde die Fläche unter der Kurve der Laufstreckenwerte bestimmt (AUC, Tab. 7): je kleiner die AUC, desto geringer die Laufleistung in der Woche nach Zymosan Injektion. […] Die Substanzgabe wurde am Tag 1 nach Zymosan Injektion begonnen.

[4] abbreviates: Versuch 1, 30-60 min nach K/C-Injektion.
The mark [5] stands for this setting: Versuch 1, 60-120 min nach K/C-Injektion.
The mark [6] stands for this setting: Versuch 1, 120-180 min nach K/C-Injektion.
Setting [7] is: Versuch 2, 30-60 min nach K/C-Injektion.
Where [8] appears, read: Versuch 2, 120-180 min nach K/C-Injektion.
Setting [9] is: Versuch 2, 180-240 min nach K/C-Injektion.
The mark [10] stands for this setting: 7 days after Zymosan, 200 mg/kg twice daily.

For the compound “2-(2-Methylamino-pyrimidin-4-yl)-1 H-benzoimidazol-5-carbonsäure ((S)1-carbamoyl-2- diphenylamin-ethyl)-amid [Verbindung 22]”, the “Wirkung im Modell 2” value in test [1] is listed as “gute Wirkung”. Also, the “Neuronale Antworten vor und während Kniegelenksentzündung, Nicht-noxische Reizung am Kniegelenk” value was -34,1 imp/15s in test [1] (setting [4]); -37,2 imp/15s in test [1] (setting [5]); -32,1 imp/15s in test [1] (setting [6]); 0 imp/15s in test [1] (Versuch 1, Baseline); -30,6 imp/15s in test [1] (setting [7]); 50,3 imp/15s in test [1] (setting [8]). For the same compound, the “Neuronale Antworten vor und während Kniegelenksentzündung, Nicht-noxische Reizung am Kniegelenk” value is listed as 68,7 imp/15s in test [1] (setting [9]) and 0 imp/15s in test [1] (Versuch 2, Baseline). Further, the “Neuronale Antworten vor und während Kniegelenksentzündung, Noxische Reizung am Kniegelenk” value was -109,1 imp/15s in test [1] (setting [4]); -101,1 imp/15s in test [1] (setting [5]); -37,8 imp/15s in test [1] (setting [6]); 0 imp/15s in test [1] (Versuch 1, Baseline); -9,2 imp/15s in test [1] (setting [7]); 60 imp/15s in test [1] (setting [8]). In addition, the “Neuronale Antworten vor und während Kniegelenksentzündung, Noxische Reizung am Kniegelenk” value in test [1] (setting [9]) is given as 96,7 imp/15s; in test [1] (Versuch 2, Baseline), 0 imp/15s.

As to `Cc1ccc(-c2cc(C(F)(F)F)nn2-c2ccc(S(N)(=O)=O)cc2)cc1` [Celecoxib, reference compound], in test [2] (14 days after Zymosan, 25 mg/kg twice daily), the “AUC Mittelwert [Maß für Hyperalgesie]” value is recorded as 51.5.

`CC(=O)Nc1ccc(O)cc1` [Paracetamol, reference compound]: the “Statistischer Unterschied gegenüber Vehikel” value was “ja” in test [2] (thermische Hyperalgesie AUC, 7 days, 200 mg/kg twice daily) and “nein” in test [3] (Laufradaktivität AUC, 7 days, 200 mg/kg twice daily). The “AUC Mittelwert [Maß für Hyperalgesie]” value in test [2] (setting [10]) came out at 24.6. Also, in test [3] (setting [10]), the “AUC Mittelwert (Laufradaktivität)” value was found to be 187.2. Further, the “Laufleistung nach Zymosan Injektion gegenüber der Vehikelgruppe” value in test [3] (7 days, twice daily) is recorded as “keine Verbesserung gegenüber der Vehikelgruppe”.
